According to article PMC8834685 (International Journal of Molecular Sciences, 2022):

T1: DmUCP4A (Drosophila melanogaster, UniProt Q9VX14)
T1 construct: gene Ucp4A
T1 sequence (Q9VX14 1-340): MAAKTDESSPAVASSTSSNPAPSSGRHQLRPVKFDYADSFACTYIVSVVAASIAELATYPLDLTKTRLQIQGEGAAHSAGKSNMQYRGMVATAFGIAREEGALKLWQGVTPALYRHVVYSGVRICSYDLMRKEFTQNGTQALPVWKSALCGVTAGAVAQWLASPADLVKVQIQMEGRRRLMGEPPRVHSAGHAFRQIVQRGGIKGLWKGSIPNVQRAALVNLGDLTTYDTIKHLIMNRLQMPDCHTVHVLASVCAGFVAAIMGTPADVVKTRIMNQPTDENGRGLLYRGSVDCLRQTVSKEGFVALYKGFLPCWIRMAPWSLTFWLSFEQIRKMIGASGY

B1: DmUCP4A (Drosophila melanogaster) (protein)
chain: T1 sequence (Q9VX14 1-340)

Key:
DmUCP4A = target: T1, DmUCP4A; test: inhibition of […]aspartate/aspartate exchange in proteoliposomes; type: biochemical; details: 0.3 mM external [14C]aspartate, 10 mM internal aspartate, pH 6.5, 25 °C, 1 min
purified protein = substrate: N[C@@H](CC(=O)O)C(=O)O; test: purified protein; details: aspartate/aspartate exchange, 10 mM internal aspartate, pH 6.5, 25 °C, labelled compound

Molecule	% inhibition at 10 mM (DmUCP4A)	also measured
Cc1ncc(COP(=O)(O)O)c(C=O)c1O [pyridoxal-5′-phosphate]	The activity of DmUCP4A was strongly inhibited by BAT, PLP, and tannic acid	–
c1ccc(-c2ccnc3c2ccc2c(-c4ccccc4)ccnc23)cc1 [bathophenanthroline]	The activity of DmUCP4A was strongly inhibited by BAT, PLP, and tannic acid	–
O=C(O)CC(C(=O)O)c1ccccc1 (stereo not drawn) [phenylsuccinate]	butylmalonate, and phenylsuccinate	–
O=C(O)C(=O)O [oxalate]	–	% inhibition at 10 mM (DmUCP4A; added externally with labelled aspartate as potential competitor): to a much lower extent by oxalate, maleate, 2-oxoglutarate, and cysteine sulfinate
N[C@@H](CS(=O)O)C(=O)O [cysteine sulfinate]	to a much lower extent by oxalate, maleate, 2-oxoglutarate, and cysteine sulfinate	–
O=C(O)CCC(=O)C(=O)O [2-oxoglutarate]	to a much lower extent by oxalate, maleate, 2-oxoglutarate, and cysteine sulfinate	–
O=C(O)/C=C\C(=O)O [maleate]	to a much lower extent by oxalate, maleate, 2-oxoglutarate, and cysteine sulfinate	–
CCCCC(C(=O)O)C(=O)O [butylmalonate]	butylmalonate, and phenylsuccinate	–
B1	–	Km (purified protein): 229.2 ± 12.64 µM
